Laboratory results taken from ChEMBL document CHEMBL5126535, “Quinoline heterocyclic containing plant and marine candidates against drug-resistant Mycobacterium tuberculosis: A systematic drug-ability investigation” (Eur J Med Chem, 2022).
Converted amounts (≈) assume the structure as drawn.

The compounds below were run on Mycobacterium tuberculosis (assay: Antibacterial activity against Mycobacterium tuberculosis). Conditions: not given.
Format: functional, organism-based

Question: For O=C1c2c(O)ccnc2-c2nccc3c2c1nc1ccccc13, which MIC is on record?
Answer: > 12.6 µg/mL

Question: CSC1=C(CCNC(C)=O)c2nc3ccccc3c3ccnc(c23)C1=O [DIPLAMINE] was tested. Which MIC did it give?
Answer: 6.18 µg/mL (≈ 17 µM)

Question: Which MIC does the source give for CC(=O)NCCc1c2c3c(ccnc3c3ncsc13)-c1ccccc1N2 [KUANONIAMINE D] here?
Answer: 12.2 µg/mL (≈ 34 µM)

Question: CSc1cnc2c3c(nc4ccccc4c13)C(CCNC(C)=O)=CC2=O [ISODIPLAMINE] was tested. Which MIC did it give?
Answer: 6.18 µg/mL (≈ 17 µM)

Question: With COc1cc2c(cc1OC)-c1cc(CC(C)=O)c3cc4c(cc3c1N(C)C2)OCO4 as the compound, how does the MIC read?
Answer: 6.25 µg/mL (≈ 15.4 µM)

Question: How did the MIC turn out when CC(=O)NCCc1c2c(c3nccc4c3c1Nc1ccccc1-4)NC(=O)CS2 [SHERMILAMINE B] was run?
Answer: 12.5 µg/mL (≈ 32 µM)

Question: Which MIC does the source give for CC(=O)NCCc1c2c(c3nccc4c3c1Nc1ccccc1-4)OCS2 [LISSOCLINIDINE] here?
Answer: 6.18 µg/mL (≈ 17 µM)

Question: On1ccc2c3ccccc3nc-2c1C1=CC2(O)CCC/C=C\CCCN3CCC1C1(CC4/C=C\CCCCN4C21)C3 (stereo not drawn) was tested. Which MIC did it give?
Answer: 3.9 µg/mL (≈ 6.91 µM)

Question: O=C1c2scnc2-c2nccc3c2c1nc1ccccc13 [KUANONIAMINE A] was tested. Which MIC did it give?
Answer: 3.1 µg/mL (≈ 10.7 µM)

Question: OC12C=C(c3nccc4c3[nH]c3ccccc34)C3CCN(CCCC/C=C\CC1)CC31CC34CCC(CCCN3C21)O4 (stereo not drawn) was tested. Which MIC did it give?
Answer: 1.77 µg/mL (≈ 3.13 µM)

Question: O=C1c2cccnc2-c2nccc3c2c1nc1ccccc13 [ASCIDIDEMIN] was tested. Which MIC did it give?
Answer: 0.01 µg/mL (≈ 0.0353 µM)

Question: Which MIC does the source give for COc1cc2c(cc1O)CCNC21C[S+]([O-])C2c3c(OC(C)=O)c(C)c4c(c3C(COC1=O)N1C(C#N)C3CC5CC(C)C(OC)C(O)C5C(C21)N3C)OCO4 (stereo not drawn) here?
Answer: 1.6 µg/mL (≈ 2.02 µM)

Question: COc1ccc2c(c[n+](C)c3c4cc5c(cc4ccc23)OCO5)c1OC [CHELERYTHRINE] was tested. Which MIC did it give?
Answer: 3.1 µg/mL

What follows are compounds tested on Mycobacterium tuberculosis (assay: Antibacterial activity against Mycobacterium tuberculosis incubated for 5 days by Alamar blue staining method). Conditions: 120 h, time 5 day.
Format: functional

Question: How did the MIC turn out when COc1ccc2c(c1OC)C(OC)N(C)c1c-2ccc2cc3c(cc12)OCO3 (stereo not drawn) was run?
Answer: 12.5 µg/mL (≈ 32.9 µM)

Question: Which MIC does the source give for COc1cc2c(c3c1-c1ccc4cc5c(cc4c1N(C)C3OC)OCO5)OCO2 (stereo not drawn) here?
Answer: 25 µg/mL (≈ 63.5 µM)

Question: For COc1cc2c[n+](C)c3c4cc5c(cc4ccc3c2cc1OC)OCO5 [NITIDINE], which MIC is on record?
Answer: 12.5 µg/mL

Question: With COc1cc2c3c(OC)cc4c(c3c[n+](C)c2c2cc3c(cc12)OCO3)OCO4 as the compound, how does the MIC read?
Answer: 12.5 µg/mL

Question: COc1cc(-c2ccccc2)nc2ccccc12 was tested. Which MIC did it give?
Answer: 6.25 µg/mL (≈ 26.6 µM)

Question: Which MIC does the source give for COc1cc2c(c3c[n+](C)c4c5cc6c(cc5ccc4c13)OCO6)OCO2 here?
Answer: 12.5 µg/mL

Question: With Cc1ccnc2c1C(=O)c1ccccc1C2=O [CLEISTOPHOLINE] as the compound, how does the MIC read?
Answer: 12.5 µg/mL (≈ 56 µM)

The compounds below were run on Mycobacterium tuberculosis (assay: Antibacterial activity against Mycobacterium tuberculosis H37Rv ATCC 27294 incubated for 6 weeks by MGIT assay). Conditions: H37Rv ATCC 27294, 1008 h.
Format: functional

Question: How did the MIC turn out when COc1ccc2c3c(c4cc(OC)c(OC)cc4c2c1)CN1CCC[C@H]1C3 was run?
Answer: 12.5 µg/mL (≈ 34.4 µM)

These compounds were tested on Mycobacterium tuberculosis (assay: Antibacterial activity against Mycobacterium tuberculosis H37Ra assessed as inhibition of bacterial growth incubated for 72 hrs by microbroth dilution method). Conditions: not given.
Format: functional

Question: How did the MIC turn out when CCCC/C=C\CCCCCCCc1cc(=O)c2ccccc2n1C was run?
Answer: 5 µg/mL (≈ 14.7 µM)

The compounds below were run on Mycobacterium tuberculosis (assay: Antibacterial activity against Mycobacterium tuberculosis H37Ra ATCC 25177 assessed as no visible mycobacterial growth incubated for 7 to 8 days by light microscope based spectrophotometric analysis). Conditions: time 7-8 day.
Format: functional

Question: How did the MIC turn out when COc1c(O)ccc2c1cnc1c3cc4c(cc3ccc21)OCO4 [DECARINE] was run?
Answer: 3.1 µg/mL (≈ 9.71 µM)

The compounds below were run on Mycobacterium tuberculosis (assay: Antibacterial activity against Mycobacterium tuberculosis measured after 14 days). Conditions: 336 h, time 14 day.
Format: functional

Question: COc1ccc2cc1Oc1ccc(cc1)CC1NCCc3cc(OC)c(cc31)Oc1c(OC)c(OC)cc3c1C(C2)N(C)CC3 (stereo not drawn) was tested. Which MIC did it give?
Answer: 0.25 µg/mL (≈ 0.411 µM)

Question: COc1ccc(CCc2cc(OC)c3ccccc3n2)cc1OC was tested. Which MIC did it give?
Answer: 6.25 µg/mL (≈ 19.3 µM)

Question: For COc1ccc2c(c1)c(-c1c3c4c(cc5c(c4c4ccc(OC)cc14)OCO5)CCN3)c1c3c(cc4c(c32)OCO4)CCN1 [BIDEBILINE E], which MIC is on record?
Answer: 6.25 µg/mL (≈ 10.7 µM)

Question: COc1ccc2cc1-c1cc(ccc1O)CC1c3cc4c(cc3CCN1C)Oc1c(OC)cc3c(c1O4)C(C2)N(C)CC3 (stereo not drawn) was tested. Which MIC did it give?
Answer: 3.1 µg/mL (≈ 5.38 µM)

Question: How did the MIC turn out when COc1ccc(CCC2CCc3ccccc3N2C)cc1OC (stereo not drawn) was run?
Answer: 6 µg/mL (≈ 19.3 µM)

Question: How did the MIC turn out when Cn1c(=O)ccc2ccccc21 was run?
Answer: 25 µg/mL (≈ 157 µM)

Question: COc1ccc2cc1-c1cc(ccc1O)CC1NCCc3cc4c(cc31)Oc1c(c(OC)cc3c1C(C2)N(C)CC3)O4 (stereo not drawn) was tested. Which MIC did it give?
Answer: 3.1 µg/mL (≈ 5.51 µM)

Question: COc1cc(CCc2ccc3c(c2)OCO3)nc2ccccc12 [CUSPARINE] was tested. Which MIC did it give?
Answer: 6.25 µg/mL (≈ 20.3 µM)

Question: How did the MIC turn out when COC(=O)C1=C2Nc3ccccc3C23CCN2C(O)C4(CC5CC67CC(=O)OC6CCN6CCC8(c9cccc(OC)c9N(C4)C58)C67)C4OCCC4(C1)C23 (stereo not drawn) was run?
Answer: 4 µg/mL (≈ 5.46 µM)

Question: Which MIC does the source give for CCCCCc1cc(OC)c2ccccc2n1 here?
Answer: 6.25 µg/mL (≈ 27.3 µM)

Question: For CN1c2ccccc2CCC1CCc1ccc2c(c1)OCO2 (stereo not drawn), which MIC is on record?
Answer: 6.25 µg/mL (≈ 21.2 µM)

What follows are compounds tested on Mycolicibacterium fortuitum (assay: Antibacterial activity against Mycobacterium fortuitum measured after 72 hrs by 96-well microtitre plate assay). Conditions: not given.
Format: functional

Question: For C[n+]1c2ccccc2cc2[n-]c3ccccc3c21 [CRYPTOLEPINE], which MIC is on record?
Answer: 16 µg/mL (≈ 68.9 µM)

These compounds were tested on Mycobacterium tuberculosis (assay: Antibacterial activity against Mycobacterium tuberculosis H37Rv ATCC 27294 incubated for 5 days by Alamar blue staining method). Conditions: H37Rv ATCC 27294, 120 h, time 5 day.
Format: functional

Question: COc1cc2c(cc1OC)-c1c3c(cc4ccnc(c14)C2=O)OCO3 [DICENTRINONE] was tested. Which MIC did it give?
Answer: 50 µg/mL (≈ 149 µM)

Each compound was assayed on Mycolicibacterium aurum (assay: Antibacterial activity against Mycobacterium aurum measured after 72 hrs). Conditions: not given.
Format: functional

Question: How did the MIC turn out when C[n+]1cc2c3c(ccc2c2ccc4cc5c(cc4c21)OCO5)OCO3 [SANGUINARIUM] was run?
Answer: 24.5 µg/mL

These compounds were tested on Mycolicibacterium smegmatis (assay: Antibacterial activity against Mycobacterium smegmatis measured after 72 hrs). Conditions: not given.
Format: functional

Question: How did the MIC turn out when C[n+]1cc2c3c(ccc2c2ccc4cc5c(cc4c21)OCO5)OCO3 [SANGUINARIUM] was run?
Answer: 24.5 µg/mL

Each compound was assayed on Mycobacterium tuberculosis (assay: Antibacterial activity against Mycobacterium tuberculosis H37Rv ATCC 27294 by broth microdilution based microplate Alamar blue staining method). Conditions: not given.
Format: functional

Question: For CC(=O)C[C@@H]1CC2C(C3c4[nH]c5ccccc5c4CCN31)C(O)C13CC/C=C\CCCCN1CC21CC/C=C\CCCCNC13 (stereo partly drawn), which MIC is on record?
Answer: 1.9 µg/mL (≈ 3.11 µM)

Question: With CC(=O)C[C@H]1CC2C(C3c4[nH]c5ccccc5c4CCN31)C(O)C13CC/C=C\CCCCN1CC21CC/C=C\CCCCNC13 (stereo partly drawn) as the compound, how does the MIC read?
Answer: 1.57 µg/mL (≈ 2.57 µM)

These compounds were tested on Mycobacterium tuberculosis (assay: Antibacterial activity against Mycobacterium tuberculosis H37Ra by MABA method). Conditions: not given.
Format: functional

Question: Which MIC does the source give for COc1cccc2c1C(=O)c1nccc3cc4c(c-2c13)OCO4 [OXOSTEPHANINE] here?
Answer: 25 µg/mL (≈ 81.9 µM)

These compounds were tested on Mycolicibacterium fortuitum (assay: Antibacterial activity against Mycobacterium fortuitum ATCC 6841 measured after 24 hrs). Conditions: not given.
Format: functional

Question: With Cn1c2nc3ccccc3c-2cc2ccccc21 [NEOCRYPTOLEPINE] as the compound, how does the MIC read?
Answer: 31 µg/mL (≈ 133 µM)

Question: For Cn1c2c3ccccc3nc-2c(-c2c3nc4ccccc4c-3n(C)c3ccccc23)c2ccccc21 [BISCRYPTOLEPINE], which MIC is on record?
Answer: 6.25 µg/mL (≈ 13.5 µM)
